Laboratory results: ChEMBL document CHEMBL5335868, “Exploring Scaffold Hopping for Novel 2-(Quinolin-4-yloxy)acetamides with Enhanced Antimycobacterial Activity” (ACS Med Chem Lett, 2024)
Values after ≈ are worked out from the molar mass of the structure shown.

Columns and labels:
[1] = tested on: Mycobacterium tuberculosis; experiment: Antibacterial activity against Mycobacterium tuberculosis H37Rv assessed as bacterial growth inhibition measured after 7 days by resazurin based assay; assay type: functional; conditions: 168 h, time 7 day
[2] = Chemical stability of compound at pH 1.2 assessed as compound remaining at 10 uM incubated for 24 hrs by HPLC-MS/MS analysis; assay type: physicochemical; conditions: buffer, read-out: Stability
[3] = Metabolic stability in rat liver microsomes assessed as half life at 1 mg/ml measured for 30 mins in presence of […] by HPLC-MS/MS analysis; assay type: ADME, Microsome
[4] = Cytotoxicity against African green monkey Vero cells incubated for 72 hrs by NRU assay; assay type: toxicity, cell-based; conditions: chlorocebus sabaeus
[5] = Cytotoxicity against African green monkey Vero cells incubated for 72 hrs by MTT assay; assay type: toxicity, cell-based; conditions: chlorocebus sabaeus
[6] = Chemical stability of compound at pH 9.1 assessed as compound remaining at 10 uM incubated for 24 hrs by HPLC-MS/MS analysis; assay type: physicochemical; conditions: buffer, read-out: Stability
[7] = Chemical stability of compound at pH 7.4 assessed as compound remaining at 10 uM incubated for 24 hrs by HPLC-MS/MS analysis; assay type: physicochemical; conditions: buffer, read-out: Stability
[8] = Solubility of compound at pH 1.2 at 1 mg incubated for 4 hrs by LC analysis; assay type: physicochemical
[9] = Cytotoxicity against human HepG2 cells incubated for 72 hrs by NRU assay; assay type: toxicity, cell-based
[10] = Cytotoxicity against human HepG2 cells incubated for 72 hrs by MTT assay; assay type: toxicity, cell-based
[11] = Solubility of compound at pH 7.4 at 1 mg incubated for 4 hrs by LC analysis; assay type: physicochemical
[12] = Permeability of compound at 10 uM measured after 5 hrs by PAMPA assay; assay type: ADME; conditions: read-out: permeability
[13] = tested on: Mycobacterium tuberculosis; experiment: Antibacterial activity against H37Rv infected in mouse RAW264.7 cells assessed as reduction in bacterial load by measuring colony forming units per well at 2.5 uM measured for 5 days by plate counting method (Rvb ~ 1.25 log10CFU); assay type: functional; conditions: time 5 day
[14] = tested on: Mycobacterium tuberculosis; experiment: Antibacterial activity against H37Rv infected in mouse RAW264.7 cells assessed as reduction in bacterial load by measuring colony forming units per well at 2.5 uM measured after 5 days by plate counting method (reference value: 4.19 +/- 0.41 log10CFU); assay type: functional; conditions: time 5 day

With `COc1ccc2nc(C)cc(OCC(=O)Nc3ccc(N4CCCCC4)cc3)c2c1` as the compound, how does the MIC [1] read?
The MIC was 0.09 µM (≈ 0.0365 µg/mL).

Which MIC [1] does the source give for `CCc1cc(OCC(=O)Nc2ccc(N3CCC(c4ccc(OC(F)(F)F)cc4)CC3)cc2)c2cc(OC)ccc2n1` here?
Its MIC is 2.1 µM (≈ 1.22 µg/mL).

What does the source list for `COc1ccc2nc(C)cc(OCC(=O)Nc3ccc(N4CCC(c5ccc(OC(F)(F)F)cc5)CC4)cc3)c2c1`?
remaining at 24 h, 10 µM [2]: 100%; half-life [3]: 21 min; CC50 at 72 h [4]: > 10 µM; CC50 at 72 h [5]: > 10 µM; remaining at 24 h, 10 µM [6]: 96.8%; remaining at 24 h, 10 µM [7]: 85.3%; MIC [1]: 0.02 µM (≈ 0.0113 µg/mL); solubility at 4 h [8]: 20 µM (≈ 11.3 µg/mL); CC50 at 72 h [9]: > 10 µM; CC50 at 72 h [10]: > 10 µM; solubility at 4 h [11]: 2190 µM (≈ 1240 µg/mL); Papp at 5 h, 10 µM [12]: 0.16 ×10⁻⁶ cm/s

Which remaining at 24 h, 10 µM [2] does the source give for `Cc1cc(OCC(=O)Nc2ccc(N3CCC(c4ccccc4)CC3)cc2)c2cc(Br)ccc2n1` here?
Its remaining at 24 h, 10 µM is 100%.

What about the half-life [3] of the same compound?
The half-life was 76.4 min.

What about the CC50 at 72 h [4] of the same compound?
The CC50 at 72 h was over 10 µM.

What about the CC50 at 72 h [5] of the same compound?
Its CC50 at 72 h is over 10 µM.

What about the remaining at 24 h, 10 µM [6] of the same compound?
The remaining at 24 h, 10 µM was 100%.

What about the remaining at 24 h, 10 µM [7] of the same compound?
Its remaining at 24 h, 10 µM is 93.9%.

What about the MIC [1] of the same compound?
The MIC was 0.02 µM (≈ 0.0106 µg/mL).

And the solubility at 4 h [8]?
Its solubility at 4 h is over 1880 µM.

And the CC50 at 72 h [9]?
The CC50 at 72 h was over 10 µM.

What about the CC50 at 72 h [10] of the same compound?
Its CC50 at 72 h is over 10 µM.

And the solubility at 4 h [11]?
The solubility at 4 h was 2640 µM (≈ 1400 µg/mL).

What about the Papp at 5 h, 10 µM [12] of the same compound?
Its Papp at 5 h, 10 µM is 0.35 ×10⁻⁶ cm/s.

Which results are given for `COc1ccc2nc(C)cc(OCC(=O)Nc3ccc(N4CCC(c5ccccc5)CC4)cc3)c2c1`?
remaining at 24 h, 10 µM [2]: 52.4%; half-life [3]: 7.1 min; CC50 at 72 h [4]: > 10 µM; CC50 at 72 h [5]: > 10 µM; remaining at 24 h, 10 µM [6]: 22.6%; remaining at 24 h, 10 µM [7]: 96.3%; MIC [1]: 0.02 µM (≈ 0.00963 µg/mL); solubility at 4 h [8]: 410 µM (≈ 197 µg/mL); CC50 at 72 h [9]: > 10 µM; CC50 at 72 h [10]: > 10 µM; solubility at 4 h [11]: 2220 µM (≈ 1070 µg/mL); Papp at 5 h, 10 µM [12]: 0.001 ×10⁻⁶ cm/s

Which MIC [1] does the source give for `O=C(COc1cc(C(F)(F)F)nc2ccc(Br)cc12)Nc1ccc(N2CCC(c3ccccc3)CC2)cc1` here?
Its MIC is 34.2 µM (≈ 20 µg/mL).

Which remaining at 24 h, 10 µM [2] does the source give for `Cc1cc(OCC(=O)Nc2ccc(N3CCC(c4ccccc4)CC3)cc2)c2cc(Cl)ccc2n1` here?
The remaining at 24 h, 10 µM was 90.6%.

And the half-life [3]?
Its half-life is 177 min.

What about the CC50 at 72 h [4] of the same compound?
Its CC50 at 72 h is over 10 µM.

And the CC50 at 72 h [5]?
Its CC50 at 72 h is over 10 µM.

What about the remaining at 24 h, 10 µM [6] of the same compound?
Its remaining at 24 h, 10 µM is 99%.

And the remaining at 24 h, 10 µM [7]?
Its remaining at 24 h, 10 µM is 100%.

What about the MIC [1] of the same compound?
Its MIC is 0.02 µM (≈ 0.00972 µg/mL).

What about the solubility at 4 h [8] of the same compound?
Its solubility at 4 h is over 2060 µM.

And the CC50 at 72 h [9]?
The CC50 at 72 h was over 10 µM.

And the CC50 at 72 h [10]?
The CC50 at 72 h was over 10 µM.

And the solubility at 4 h [11]?
The solubility at 4 h was 4030 µM (≈ 1960 µg/mL).

What about the Activity [13] of the same compound?
Its Activity is 0.48 log10CFU.

And the Activity [14]?
The Activity was 2.46 log10CFU.

And the Papp at 5 h, 10 µM [12]?
Its Papp at 5 h, 10 µM is 0.49 ×10⁻⁶ cm/s.

Which MIC [1] does the source give for `Cc1cc(OCC(=O)Nc2ccc(N3CCC(c4ccc(OC(F)(F)F)cc4)CC3)cc2)c2cc(Cl)ccc2n1` here?
Its MIC is 0.14 µM (≈ 0.0798 µg/mL).

For `CCc1cc(OCC(=O)Nc2ccc(N3CCC(c4ccc(OC(F)(F)F)cc4)CC3)cc2)c2cc(Cl)ccc2n1`, which MIC [1] is on record?
Its MIC is 0.07 µM (≈ 0.0409 µg/mL).

Which MIC [1] does the source give for `CCc1cc(OCC(=O)Nc2ccc(N3CCC(c4ccccc4)CC3)cc2)c2cc(OC)ccc2n1` here?
The MIC was 0.08 µM (≈ 0.0396 µg/mL).

With `CCc1cc(OCC(=O)Nc2ccc(N3CCC(c4ccc(OC(F)(F)F)cc4)CC3)cc2)c2cc(Br)ccc2n1` as the compound, how does the MIC [1] read?
Its MIC is 7.9 µM (≈ 4.97 µg/mL).

For `Cc1cc(OCC(=O)Nc2ccc(N3CCC(c4ccc(OC(F)(F)F)cc4)CC3)cc2)c2cc(Br)ccc2n1`, which MIC [1] is on record?
Its MIC is 0.06 µM (≈ 0.0369 µg/mL).

Which MIC [1] does the source give for `O=C(COc1cc(C(F)(F)F)nc2ccc(Cl)cc12)Nc1ccc(N2CCC(c3ccccc3)CC2)cc1` here?
Its MIC is 74 µM (≈ 40 µg/mL).

Which MIC [1] does the source give for `CCc1cc(OCC(=O)Nc2ccc(N3CCC(c4ccccc4)CC3)cc2)c2cc(Br)ccc2n1` here?
The MIC was 0.07 µM (≈ 0.0381 µg/mL).

For `COc1ccc2nc(C(F)(F)F)cc(OCC(=O)Nc3ccc(N4CCC(c5ccccc5)CC4)cc3)c2c1`, which MIC [1] is on record?
The MIC was 0.1 µM (≈ 0.0536 µg/mL).

For `CCc1cc(OCC(=O)Nc2ccc(N3CCC(c4ccccc4)CC3)cc2)c2cc(Cl)ccc2n1`, which MIC [1] is on record?
The MIC was 0.04 µM (≈ 0.02 µg/mL).

Which MIC [1] does the source give for `NNC(=O)c1ccncc1` [ISONIAZID] here?
Its MIC is 2.3 µM (≈ 0.315 µg/mL).

With `CCc1nc2ccc(Cl)cn2c1C(=O)NCc1ccc(N2CCC(c3ccc(OC(F)(F)F)cc3)CC2)cc1` [TELACEBEC] as the compound, how does the MIC [1] read?
The MIC was 0.009 µM (≈ 0.00501 µg/mL).
